Experimental data: patent publication US6573289B1, “Naphthalene derivatives, their production and use” (Takeda Chemical Industries, Ltd., priority 1998, dated 2003)
Where a name gives a salt, the structure may show the parent alone.

Legend:
[1] = system: testosterone biosynthesis; test: Assay of inhibitory activity on testosterone biosynthesis in rat; assay type: in vivo; conditions: male SD rats, oral, 50 mg/kg, serum testosterone 2 h later, percentage of control group
Protocol: Assay of Inhibitory Activity on Testosterone Biosynthesis in Rat
Test compounds were orally administered to 9-week old, male SD (Spague-Dawley) rats at a dose of 50 mg/kg. Two-h later blood was taken and testosterone concentration in serum was measured by radioimmunoassay. The percentage of the testosterone concentration of the groups of rats, which received test compounds, to that of the control group was calculated, and regarded as the inhibitory activity.

Rat Steroid C17-20-Lyase = target: T1, Rat Steroid C17-20-Lyase (Rattus norvegicus, UniProt P11715); test: Assay of inhibitory activity on rat steroid C17-20-lyase in vitro; assay type: biochemical; conditions: rat testicular microsomes, 10 nM [1,2-3H]-17-α-hydroxyprogesterone, NADPH, 7 min at 37° C.; products testosterone and androstenedione reduced by 50%
T1 construct: testicular microsomes were prepared by a series of centrifugation; from tissue; host or cells: testicular microsomes of 13-week old male SD rats
T1 sequence (P11715 1-507): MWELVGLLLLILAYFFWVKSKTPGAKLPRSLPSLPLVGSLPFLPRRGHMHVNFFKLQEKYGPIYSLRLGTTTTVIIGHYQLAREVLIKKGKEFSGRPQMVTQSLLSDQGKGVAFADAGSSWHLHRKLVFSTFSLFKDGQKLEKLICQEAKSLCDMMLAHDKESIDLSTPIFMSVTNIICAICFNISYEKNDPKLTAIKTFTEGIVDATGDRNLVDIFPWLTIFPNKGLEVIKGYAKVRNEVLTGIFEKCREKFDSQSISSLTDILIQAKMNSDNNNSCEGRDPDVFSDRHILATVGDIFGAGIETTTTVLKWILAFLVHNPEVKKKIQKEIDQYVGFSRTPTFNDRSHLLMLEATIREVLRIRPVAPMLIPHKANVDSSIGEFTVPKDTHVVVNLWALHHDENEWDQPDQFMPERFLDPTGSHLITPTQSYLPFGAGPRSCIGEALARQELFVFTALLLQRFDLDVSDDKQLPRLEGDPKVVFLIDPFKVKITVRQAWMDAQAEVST
Protocol: Assay of Inhibitory Activity on Rat Steroid C17-20-Lyase In Vitro
Inhibitory activity was determined according to the method described in The Prostate, vol.26, 140-150(1995) with some modifications.
Testes excised from 13-week old, male SD rats were homogenized, and testicular microsomes were prepared by a series of centrifugation. The microsome protein (7 μg/10 μl) was added to 10 μl of 100 mM phosphate buffer (pH 7.4) in which 10 nM (final concentration) [1,2-3H]-17-α-hydroxyprogesterone, NADPH, and test compounds were dissolved. The reaction mixture was incubated for 7 min at 37° C., terminated by addition of 40 μl of Ethyl acetate, and briefly centrifuged. The substrate and the products (testosterone and androstenedione) in the upper phase were separated by silica gel thin layer chromatography. Detection of the spots and measurement of the radioactivity were performed by a BAS 2000 Bioimage analyzer. The concentration of the test compounds necessary to reduce the concentration of the products by 50% (The concentration in the control group in which no test compound was added was taken as 100%) was calculated, and shown in Table 1.

Row | SMILES | IC50 (Rat Steroid C17-20-Lyase) [nM] | Inhibitory activity on testosterone biosynthesis (T/C, %) [1] [%]
1 | COc1ccc2cc(C(O)(c3ccncc3)C(C)C)ccc2c1 (stereo not drawn) [Example 9, 1-(6-Methoxynaphthalen-2-yl)-2-methyl-1-(pyridin-4-yl)-1-propanol] | 32 | 
2 | CCC(O)(c1ccc2cc(OC)ccc2c1)c1c[nH]cn1 (stereo not drawn) [Example 12, 1-(1H-Imidazol-4-yl)-1-(6-methoxynaphthalen-2-yl)-1-propanol] | 41 | 10
3 | COc1ccc2cc(C(C)(OC)c3c[nH]cn3)ccc2c1 (stereo not drawn) [Example 19, 4-[1-Methoxy-1-(6-methoxynaphthalen-2-yl)ethyl]-1H-imidazole] | 35 | 

Further lines, with some results ahead:

Row | IC50 (Rat Steroid C17-20-Lyase) [nM] | SMILES | Inhibitory activity on testosterone biosynthesis (T/C, %) [1] [%]
4 | 33 | COc1ccc2cc(C(O)(c3c[nH]cn3)C(C)C)ccc2c1 (stereo not drawn) [Example 1, 1-(1H-Imidazol-4-yl)-1-(6-methoxynaphthalen-2-yl)-2-methyl-1-propanol] | 2.0
5 | 64 | COc1ccc2cc(C(O)(c3c[nH]cn3)C3CC3)ccc2c1 (stereo not drawn) [Example 4, Cyclopropyl-(6-methoxynaphthalen-2-yl)-(1H-imidazol-4-yl)methanol Fumarate] | 
6 | 32 | COc1ccc2cc(C(O)(c3c[nH]cn3)C(C)C)ccc2c1F (stereo not drawn) [Example 11, 1-(5-Fluoro-6-methoxynaphthalen-2-yl)-1-(1H-imidazol-4-yl)-2-methyl-1-propanol] | 9.0
